Data taken from patent publication US20260364214A1, “MULTIVALENT FIBROBLAST ACTIVATION PROTEIN LIGANDS FOR TARGETED DELIVERY APPLICATIONS” (Philochem AG, priority 2022, published 2026).

How the values were obtained:
[1] = tested on: SK-RC-52.hFAP tumors; assay: Therapeutic efficacy in dose escalation and in combination with L19-IL2; type: in vivo, mouse (athymic Balb/c AnNRj-Foxn1); conditions: 5, 15 or 30 MBq/mouse on day 7
Procedure: Prior to the therapy studies, precursors (25 nmol) were dissolved in 25 μL of milliQ water, then sodium acetate buffer (75 μL, 1 M in water) and 25, 75 or 150 MBq of ^177Lu solution were added. The mixture was heated at 90 °C for 1 minutes followed by dilution with 400 μL of PBS to afford a final volume of 500 μL (5 doses of 100 μL each). Quality control of radiosynthesis was performed using radio-HPLC.
The anti-cancer efficacy of L19-IL2 as single agent (3×0.05 mg/mouse), ^177Lu-Tri-ESV6 as single agent at different doses (5 MBq/mouse, 15 MBq/mouse, 30 MBq/mouse), ^177Lu-Tri-ESV6+L19-IL2 combination (5 MBq/mouse of ^177Lu-Tri-ESV6 followed by three injections of L19-IL2 at 0.05 mg/mouse) or saline was assessed in athymic Balb/c AnNRj-Foxn1 mice bearing SK-RC-52.hFAP tumor in the right flank. Therapy experiments started when the average volume of established tumors had reached 100-150 mm^3. Body weight of the animals and tumor volume were daily measured and recorded. Tumor dimensions were measured with an electronic caliper and tumor volume was calculated with the formula (long side, mm)×(short side, mm)×(short side, mm)×0.5. Animals were euthanized when one or more termination criterium indicated by the experimental license was reached. Prism 7 software (GraphPad Software) was used for data analysis. […]

[2] = tested on: SK-RC-52.hFAP tumors; assay: Therapeutic efficacy, schedule optimization for combination with L19-IL2; type: in vivo, mouse (athymic Balb/c AnNRj-Foxn1); conditions: 5 MBq/mouse on day 7
Procedure: The anti-cancer efficacy was assessed in athymic Balb/c AnNRj-Foxn1 mice bearing SK-RC-52.hFAP tumor in the right flank. Therapy experiments started when the average volume of established tumors had reached 100-150 mm^3. Body weight of the animals and tumor volume were daily measured and recorded. Tumor dimensions were measured with an electronic caliper and tumor volume was calculated with the formula (long side, mm)×(short side, mm)×(short side, mm)×0.5. Animals were euthanized when one or more termination criterium indicated by the experimental license was reached. Prism 7 software (GraphPad Software) was used for data analysis. Different groups were treated with (i) L19-IL2 as single agent at a dose of 0.05 mg/mouse on day 8,10 and 12, (ii) ^177Lu-Tri-ESV6 as single agent at a dose of 5 MBq/mouse on day 7 (iii) ^177Lu-Tri-ESV6+L19-IL2 combination (^177Lu-Tri-ESV6 at a dose of 5 MBq/mouse on day 7 followed by three administrations of L19-IL2 at a dose 0.05 mg/mouse on day 8, 10 and 12—SCHEDULE 1—, or by three administrations of L19-IL2 at a dose 0.05 mg/mouse on day 12, 17 and 22—SCHEDULE 2—, or by a single administration of L19-IL2 at a dose 0.05 mg/mouse on day 8—SCHEDULE 3—, or by a single administration of L19-IL2 at a dose 0.05 mg/mouse on day 12—SCHEDULE 4—or (iv) saline […].

[3] = tested on: SK-RC-52.hFAP tumors; assay: 177Lu biodistribution at different radioisotope molar activities; type: in vivo, mouse; conditions: 0.2 vs 4.8 MBq/nmol; 24 h post injection
Procedure: Prior to the biodistribution study at different specific activities (FIG. 19), precursors (20 nmol) were dissolved in milliQ water and diluted with sodium acetate (1 M in water, pH=4.5). ^177Lu solution (4 or 96 MBq) were added and the mixture was heated at 90 °C for 10 minutes, followed by dilution with PBS to achieve final volume of 400 μL (4 doses of 100 μL each, corresponding to 0.2 MBq/nmol and 4.8MBq/nmol, respectively).
Results of the ^177Lu biodistribution study at different specific activities: low (0.2 MBq/nmol) and high (4.8 MBq/nmol) with ^177Lu Tri-ESV6-DOTAGA are shown in FIG. 19.

N#CC1CC(F)(F)CN1C(=O)CNC(=O)c1ccnc2c(NC(=O)CCC(=O)NCCNC(=O)CCOCC(COCCC(=O)NCCNC(=O)CCC(=O)Nc3cccc4c(C(=O)NCC(=O)N5CC(F)(F)CC5C#N)ccnc34)(COCCC(=O)NCCNC(=O)CCC(=O)Nc3cccc4c(C(=O)NCC(=O)N5CC(F)(F)CC5C#N)ccnc34)NC(=O)CCC(C(=O)O)N3CCN(CC(=O)[O-])CCN(CC(=O)[O-])CCN(CC(=O)[O-])CC3)cccc12.[177Lu+3] (stereo not drawn) [^177Lu-Tri-ESV6-DOTAGA]
therapeutic activity, in words [1]: dose-dependent therapeutic activity | therapeutic activity, in words [2]: dose-dependent therapeutic activity | effect of molar activity on biodistribution, in words [3]: does not significantly interfere with the advantageous biodistribution
